Test results taken from PubChem BioAssay (NCI).
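Grown in 96-well plates, cells were treated for 48 hours with each compound at five concentrations. Insufficient inhibition: endpoint recorded as highest concentration tested. GI50 = concentration required for 50% inhibition of growth. The concentration for full growth arrest is given as TGI.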

What was measured:
Experiment in all cases: NCI anticancer screen, dose series, 48 h
NCI-H23 lung = tested on: NCI-H23 lung
NCI-H460 lung = tested on: NCI-H460 lung
NCI-H522 lung = tested on: NCI-H522 lung
NCI/ADR-RES ovarian = tested on: NCI/ADR-RES ovarian
OVCAR-3 ovarian = tested on: OVCAR-3 ovarian
OVCAR-4 ovarian = tested on: OVCAR-4 ovarian
OVCAR-5 ovarian = tested on: OVCAR-5 ovarian
OVCAR-8 ovarian = tested on: OVCAR-8 ovarian
PC-3 prostate = tested on: PC-3 prostate
RPMI-8226 leukemia = tested on: RPMI-8226 leukemia
SF-268 CNS = tested on: SF-268 CNS
SF-295 CNS = tested on: SF-295 CNS
SF-539 CNS = tested on: SF-539 CNS
SK-MEL-2 melanoma = tested on: SK-MEL-2 melanoma
SK-MEL-28 melanoma = tested on: SK-MEL-28 melanoma
SK-MEL-5 melanoma = tested on: SK-MEL-5 melanoma
SK-OV-3 ovarian = tested on: SK-OV-3 ovarian
SN12C renal = tested on: SN12C renal
SNB-19 CNS = tested on: SNB-19 CNS
SNB-75 CNS = tested on: SNB-75 CNS
SR leukemia = tested on: SR leukemia
SW-620 colon = tested on: SW-620 colon
T-47D breast = tested on: T-47D breast
TK-10 renal = tested on: TK-10 renal
U251 CNS = tested on: U251 CNS
UACC-257 melanoma = tested on: UACC-257 melanoma
UACC-62 melanoma = tested on: UACC-62 melanoma
UO-31 renal = tested on: UO-31 renal

## Cc1cc(Nc2cccc(F)c2)nc(NCc2ccccc2)n1
NCI-H23 lung
  GI50: 4.96 µM
  TGI: 21.9 µM
NCI-H460 lung
  GI50: 3.84 µM
  TGI: 15.8 µM
NCI-H522 lung
  GI50: 8.45 µM
  TGI: 24.7 µM
NCI/ADR-RES ovarian
  GI50: 6.38 µM
  TGI: 38 µM
OVCAR-3 ovarian
  GI50: 8.65 µM
  TGI: 21.7 µM
OVCAR-4 ovarian
  GI50: 4.42 µM
  TGI: 37.6 µM
OVCAR-5 ovarian
  GI50: 12.4 µM
  TGI: 29.9 µM
OVCAR-8 ovarian
  GI50: 3.9 µM
  TGI: 18.2 µM
PC-3 prostate
  GI50: 4.34 µM
  TGI: 18.7 µM
RPMI-8226 leukemia
  GI50: 2.03 µM
  TGI: 7.97 µM
SF-268 CNS
  GI50: 11.3 µM
  TGI: 28.6 µM
SF-295 CNS
  GI50: 6.57 µM
  TGI: 27.1 µM
SF-539 CNS
  GI50: 10.8 µM
  TGI: 24.7 µM
SK-MEL-2 melanoma
  GI50: 11 µM
  TGI: 25.4 µM
SK-MEL-28 melanoma
  GI50: 7.21 µM
  TGI: 20.6 µM
SK-MEL-5 melanoma
  GI50: 2.73 µM
  TGI: 10.1 µM
SK-OV-3 ovarian
  GI50: 10.6 µM
  TGI: 22.5 µM
SN12C renal
  GI50: 6.12 µM
  TGI: 23 µM
SNB-19 CNS
  GI50: 11.1 µM
  TGI: 26.8 µM
SNB-75 CNS
  GI50: 0.799 µM
  TGI: 13 µM
SR leukemia
  GI50: 3.28 µM
  TGI: 10.1 µM
SW-620 colon
  GI50: 6.62 µM
  TGI: 23.7 µM
T-47D breast
  GI50: 3.71 µM
  TGI: 18.5 µM
TK-10 renal
  GI50: 8.29 µM
  TGI: 21.4 µM
U251 CNS
  GI50: 3.32 µM
  TGI: 8.34 µM
UACC-257 melanoma
  GI50: 3.95 µM
  TGI: 15.5 µM
UACC-62 melanoma
  GI50: 5.61 µM
  TGI: 20.2 µM
UO-31 renal
  GI50: 3.26 µM
  TGI: 19.3 µM
